Source: ChEMBL document CHEMBL1201862, “PubChem BioAssay data set” (2004)
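Compound exposure: 48 hours, 5 concentrations, 96-well plates. Here, GI50 denotes the concentration required for 50% inhibition of growth.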 Calls of active or inactive are those of the source. Rule as the data show it: active = GI50 up to about 1.1 µM and inactive = higher.

Legend:
Assay in all cases: NCI anticancer screen, dose series, 48 h
U-251 = system: U-251
HCT-116 = system: HCT-116
EKVX = system: EKVX
ACHN = system: ACHN
SN12C = system: SN12C
NCI-H522 = system: NCI-H522
UACC-257 = system: UACC-257
OVCAR-5 = system: OVCAR-5
MOLT-4 = system: MOLT-4
SK-MEL-28 = system: SK-MEL-28
A549 = system: A549
DLD-1 = system: DLD-1
NCI-H23 = system: NCI-H23
HCC 2998 = system: HCC 2998
MDA-N = system: MDA-N
MCF7 = system: MCF7
T47D = system: T47D
BT-549 = system: BT-549
NCI/ADR-RES = system: NCI/ADR-RES
MDA-MB-231 = system: MDA-MB-231

Measured: GI50

N/C(=C\c1ccc(/C=C(\NC(=O)c2ccccc2)c2nc3c([nH]2)C(=O)c2ccccc2C3=O)cc1)c1nc2c([nH]1)C(=O)c1ccccc1C2=O
inactive: U-251 14.3 µM | HCT-116 14.5 µM | EKVX 23.3 µM | ACHN 15.6 µM | SN12C 14.3 µM | NCI-H522 11.9 µM | UACC-257 17.8 µM | OVCAR-5 18.9 µM | MOLT-4 6.7 µM | SK-MEL-28 16.8 µM | A549 14.2 µM | DLD-1 12.7 µM | NCI-H23 14.3 µM

COC1OC(C)C2OC(C)(C)OC2C1OC(C)=O (stereo unspecified)
inactive: U-251 > 100 µM | HCC 2998 > 100 µM | HCT-116 > 100 µM | ACHN > 100 µM | SN12C > 100 µM | NCI-H522 > 100 µM | UACC-257 > 100 µM | OVCAR-5 > 100 µM | MOLT-4 > 100 µM | SK-MEL-28 > 100 µM | A549 > 100 µM | DLD-1 > 100 µM | NCI-H23 > 100 µM

COc1cc(/C=N/c2ccccn2)cc(OC)c1OC
inactive: U-251 > 100 µM | HCC 2998 > 100 µM | HCT-116 > 100 µM | EKVX > 100 µM | MDA-N 28.3 µM | MCF7 54.5 µM | ACHN > 100 µM | SN12C > 100 µM | NCI-H522 > 100 µM | T47D > 100 µM | UACC-257 > 100 µM | OVCAR-5 > 100 µM | BT-549 > 100 µM | NCI/ADR-RES > 100 µM | MOLT-4 > 100 µM | SK-MEL-28 > 86.9 µM | A549 > 100 µM | MDA-MB-231 > 100 µM | NCI-H23 > 100 µM

COc1ccc(/N=N/c2c(-c3ccccc3)nn(C(=O)CC(=O)Nc3cccc(Cl)c3)c2-c2ccccc2)cc1
inactive: U-251 > 100 µM | HCC 2998 21.5 µM | HCT-116 45.6 µM | EKVX 29.4 µM | ACHN > 100 µM | SN12C > 100 µM | NCI-H522 43 µM | UACC-257 > 100 µM | OVCAR-5 61.2 µM | MOLT-4 70.1 µM | SK-MEL-28 > 100 µM | A549 32.3 µM | DLD-1 40.6 µM | NCI-H23 22.6 µM

Cc1ccc(S(=O)(=O)C(C#N)c2nc3ccccc3nc2-n2cccn2)cc1 (stereo unspecified)
inactive: U-251 > 100 µM | HCC 2998 > 100 µM | HCT-116 > 100 µM | EKVX > 100 µM | ACHN > 100 µM | SN12C > 100 µM | UACC-257 > 100 µM | OVCAR-5 > 100 µM | MOLT-4 > 100 µM | SK-MEL-28 > 100 µM | A549 > 100 µM | DLD-1 > 100 µM | NCI-H23 > 100 µM

CC(=O)OC[C@@H]1[C@H]2CC(=O)O[C@H]2C[C@H]1OC(C)=O
inactive: U-251 > 100 µM | HCC 2998 > 100 µM | HCT-116 94 µM | EKVX > 100 µM | ACHN > 100 µM | SN12C > 100 µM | NCI-H522 > 100 µM | UACC-257 > 100 µM | OVCAR-5 > 100 µM | MOLT-4 > 100 µM | SK-MEL-28 > 100 µM | A549 > 100 µM | DLD-1 > 100 µM

C=CCC1(CN(C)C)CC/C(=C\c2ccc(Cl)cc2)C1=O (stereo unspecified)
inactive: U-251 38.1 µM | HCC 2998 33.1 µM | HCT-116 19.9 µM | EKVX 38.9 µM | ACHN 44.8 µM | SN12C 70.1 µM | NCI-H522 18.9 µM | UACC-257 25.5 µM | OVCAR-5 > 77.4 µM | MOLT-4 17.9 µM | SK-MEL-28 > 83.2 µM | A549 59.6 µM | DLD-1 32.1 µM | NCI-H23 47.5 µM

COc1cc2c(cc1OC)C(C)N(C)c1c-2c(OC(C)=O)cc2cc(OC)c(OC)cc12 (stereo unspecified)
inactive: U-251 21.7 µM | HCC 2998 15.6 µM | HCT-116 13.9 µM | EKVX 13.2 µM | MDA-N 14.6 µM | MCF7 12.5 µM | ACHN 17.3 µM | SN12C 9.93 µM | NCI-H522 3.34 µM | T47D 8.24 µM | UACC-257 11.1 µM | OVCAR-5 36.4 µM | BT-549 18.2 µM | NCI/ADR-RES 7.48 µM | MOLT-4 5.69 µM | SK-MEL-28 19.9 µM | A549 16.9 µM | MDA-MB-231 5.92 µM | NCI-H23 15.4 µM

COCCOCC(=O)N(CCn1ccc(NC(c2ccccc2)(c2ccccc2)c2ccccc2)nc1=O)CCn1cnc2nc(N)[nH]c(=O)c21
inactive: U-251 > 100 µM | HCC 2998 > 100 µM | HCT-116 > 100 µM | EKVX > 100 µM | ACHN > 100 µM | SN12C > 100 µM | UACC-257 > 100 µM | OVCAR-5 > 100 µM | MOLT-4 > 100 µM | SK-MEL-28 > 100 µM | A549 > 100 µM | DLD-1 > 100 µM | NCI-H23 > 100 µM
